Test results published in ChEMBL document CHEMBL1155248, “Structure-based shape pharmacophore modeling for the discovery of novel anesthetic compounds” (Bioorg Med Chem, 2009).

Key:
[1] = Binding affinity to apoferritin by isothermal titration calorimetry
[2] = Agonist activity at GABAA assessed as enhancement of channel current; assay type: functional

Row | SMILES | pEC50 [1] | Kd [2] [µM]
1 | CCc1cccc(CC)c1N=C=S | 4.8 | –
2 | CCc1cccc(CC)c1N=C=O | 4.6 | –
3 | CC(C)c1cc(O)c(O)c(C(C)C)c1 | 4.4 | –
4 | CCc1cccc(CC)c1Br | 4.7 | –
5 | CCC(C)c1ccc(O)c(C(C)CC)c1 (centres undefined) | 4.5 | –
6 | Cc1cccc(C(C)(C)C)c1O | 6.3 | –
7 | CCc1cccc(CC)c1O | 4.9 | 0.31
8 | CC(C)c1ccccc1O | 4.4 | 0.5
9 | Cc1cccc(C)c1O | 3.9 | 0.36
10 | CC(C)(C)c1cc(O)cc(C(C)(C)C)c1 | 4 | –
11 | CCC(C)c1cccc(C(C)CC)c1O (centres undefined) | 5.6 | –
12 | CC(C)c1cc(I)cc(C(C)C)c1O | 5 | –
13 | Oc1ccccc1 [PHENOL] | 3 | 3.8
14 | CC(C)c1cccc(C(C)C)c1O [PROPOFOL] | 5.7 | 0.23
